Experimental data from patent US20100048398A1, “HERBICIDAL COMBINATION” (SYNGENTA CROP PROTECTION, INC., priority 2006, published 2010).

Tests used:
Assay in all cases: Glasshouse peri-emergence herbicide test, damage to plant
Assay type in all cases: in vivo
Settings in all cases: sprayed six days after sowing (peri-emergence), evaluated after 14 days; rate gai/ha: Prosulfocarb 2400, Flumioxazin 20, combination 2400 + 20
AVEFA = Avena fatua = system: AVEFA = Avena fatua
Experimental: (§1) Seeds of a variety of test species were sown in standard soil. After cultivation for six days (peri-emergence) under controlled conditions in a glasshouse (at 24/16° C., day/night; 14 hours light; 65% humidity), the plants were sprayed with an aqueous spray solution comprising the technical active ingredient(s). The test plants were then grown in a glasshouse under controlled conditions in a glasshouse (at 24/16° C., day/night; 14 hours light; 65% humidity) and watered twice daily. After 14 days, the test was evaluated (100=total damage to plant; 0=no damage to plant).

POAAN = Poa annua = system: POAAN = Poa annua
Experimental: as §1

[1] = system: VERPE = Veronica persicae
Experimental: as §1

[2] = system: ALOMY = Alopecurus myosuroides
Experimental: as §1

[3] = system: LOLMU = Lolium multiflorum
Experimental: as §1

GALAP = Galium aparine = system: GALAP = Galium aparine
Experimental: as §1

[4] = system: APESV = Apera spica-venti
Experimental: as §1

TRZAW = Tritcum aestivum = system: TRZAW = Tritcum aestivum
Experimental: as §1

HORVW = Hordeum vulgare = system: HORVW = Hordeum vulgare
Experimental: as §1

| Compound | damage to plant (100=total damage; 0=no damage), AVEFA (AVEFA = Avena fatua) | damage to plant (100=total damage; 0=no damage), POAAN (POAAN = Poa annua) | damage to plant (100=total damage; 0=no damage), VERPE [1] | damage to plant (100=total damage; 0=no damage), ALOMY [2] | damage to plant (100=total damage; 0=no damage), LOLMU [3] | damage to plant (100=total damage; 0=no damage), GALAP (GALAP = Galium aparine) | damage to plant (100=total damage; 0=no damage), APESV [4] | damage to plant (100=total damage; 0=no damage), TRZAW (TRZAW = Tritcum aestivum) | damage to plant (100=total damage; 0=no damage), HORVW (HORVW = Hordeum vulgare) |
| --- | --- | --- | --- | --- | --- | --- | --- | --- | --- |
| CCCN(CCC)C(=O)SCc1ccccc1 [Prosulfocarb, prosulfocarb] | 55 | 0 | 88 | 78 | 30 | 78 | 95 |  |  |
| C#CCN1C(=O)COc2cc(F)c(N3C(=O)C4=C(CCCC4)C3=O)cc21 [Flumioxazin, flumioxazin] | 8 | 5 | 99 | 33 | 0 | 73 | 60 | 8 | 0 |
